This note sets out measurements from patent publication US20220370545A1, “INTEGRIN RECEPTOR ALPHA V BETA 3 AND ITS LIGAND INVOLVED IN CHRONIC ITCH” (North Carolina State University, priority 2019, published 2022).

Ends that are not written are not given here.

Data set [1] concerns Integrin αvβ3 on DRG Sensory Neurons. As to the kind of experiment: Fura-2 calcium imaging of periostin-induced calcium response in cultured DRG sensory neurons. The format is cell-based, mouse. On the procedure:
DRGs were isolated from mice and dissociated in 1 mL of media containing 2.5 U/mL of dispase (Fisher Scientific, Hampton, New Hampshire, United States of America) and 2.5 mg/mL of collagenase (Fisher Scientific, Hampton, New Hampshire, United States of America). After dissociation, the cells were washed with complete media (DMEM (HiMedia Laboratories, Mumbai, India) with 10% FBS (Atlanta Biologicals, Flowery Branch, Georgia, United States of America) and 1% PenStrep (VWR International, Radnor, Pa., United States of America)) and pelleted at 1000 rpm for 15 minutes. Approximately 30 μL of the cell suspension was plated on 18 mm round glass slides with a coating of laminin (Sigma Aldrich, St. Louis, Miss., United States of America) and poly-L-lysine (Sigma Aldrich, St. Louis, Miss., United States of America) and incubated for 1.5 hours. Afterwards, 1 mL of complete media was added, and the cells were incubated overnight. All incubation steps were done at 37° C. with 5% CO2.
(§1) Before imaging, cells were incubated in 350 μL of complete media containing 1 μM Fura-2 AM (Enzo Life Sciences, Farmingdale, New York, United States of America) for 30 min at 37° C. with 5% CO2. During imaging, the cells were perfused with a buffer containing the following: 135 mM sodium chloride, 3.2 mM potassium chloride, 2.5 mM magnesium chloride, 2.8 mM calcium chloride, 667 μM monobasic sodium phosphate, 14.2 mM sodium bicarbonate, and 10.9 mM D-glucose (all from VWR International, Radnor, Pennsylvania, United States of America) with a pH between 7.00 and 7.40. The buffer and the holding plate were kept at 37° C. while imaging. Imaging data was collected on a TE200 inverted microscope using NIS Elements software (Nikon, Melville, New York, United States of America). Cells were exposed to 340 nm and 380 nm wavelengths for 100 ms and the A340/A380 ratio was calculated. Traces were analyzed using Excel and responses greater than 10% of the baseline were counted. Each data point in the scatter plots represented one coverslip.
(§2) Calcium Imaging: Calcium imaging will be performed on the DRG neurons as previously described (Pitake et al., 2018). Briefly, DRG neurons will be incubated for longer than 30 min in DMEM containing 1 μM of a fluorescent indicator Fura-2 AM (Enzo Life Sciences, Inc., Farmingdale, N.Y., United States of America). The neurons will be perfused in a standard bath solution containing 140 mM NaCl, 5 mM KCl, 2 mM MgCl2, 2 mM CaCl2, 10 mM Hepes and 10 mM D-glucose at pH 7.4 adjusted with NaOH. A calcium-free bath solution will be prepared by omitting 2 mM CaCl2 from the standard bath solution […] adding 5 mM EGTA. Fura-2 fluorescence excited at 340 and 380 nm and emission will be monitored at 510 nm with a digital CCD camera (Andor Clara DR-4152, Andor Technology Ltd, Belfast, United Kingdom). Data will be obtained by every 100 ms using an imaging software (NIS-Elements AR 4.13.04, Nikon Corporation, Tokyo, Japan) and analyzed by Microsoft Excel (Microsoft Corporation, Redmond, Wash., United States of America). Values of calcium responses will be normalized by dividing measured values (F) with average values of initial 5 frames (F0) of each cell and described as F/F0. In this study, changes in each response to an application with F/F0>0.1 will be regarded as positive. Cells not responding to 100 mM KCl, which is applied at the end of each experiment, will be regarded as non-neuronal cells and excluded from analysis.
Periostin (10 ug/ml) will be used to evoke calcium influx. This response has been optimized. The peptide inhibitors will be tested on DRG neurons to measure calcium influx in response to periostin. Data on calcium imaging will be presented by presenting each mouse±SEM. The IC50 value of the inhibitor will also be determined
Additional inhibitors were studied using the calcium imaging method described in Example 3. Briefly, the Fura2-AM calcium imaging method was performed on live dorsal root ganglia (DRG) neurons (ex vivo). […]

Data set [2] addresses T1, TRPV1 receptor (Mus musculus, UniProt Q704Y3).
T1 construct: endogenous in cells; host or cells: primary mouse dorsal root ganglion neurons
As to the kind of experiment: Capsaicin-induced calcium response in DRG neurons (specificity control). The format is cell-based. To be noted: capsaicin 1 μM. On the procedure:
as §1, §2
Additional inhibitors were studied using the calcium imaging method described in Example 3. Briefly, the Fura2-AM calcium imaging method was performed on live dorsal root ganglia (DRG) neurons (ex vivo). The DRG neurons are pre-incubated with the inhibitors P11 (Catalog #4744, Tocris Bioscience, Bristol, United Kingdom) and LM609 (Catalog #MAB1876, Millipore Sigma, Burlington, Mass., United States of America) or vehicle for 10 minutes and further stimulated with periostin or capsaicin in the presence of inhibitors. For Echistatin (Catalog #3202/100U, R&D Biosystems, Minneapolis, Minn., United States of America), MK-0429, and SB273005 (Catalog #S75-40, Selleck Chemicals Llc, Houston, Tex., United States of America), the DRG neurons were perfused with a normal Locke buffer vehicle or modified Locke buffer as described below. The values were normalized with KCl ([…]) to identify neuronal responses in all the calcium response data below.

For data set [3], the system named is murine keratinocyte cell line (Balb/MK2). As to the kind of experiment: TSLP-induced periostin production in Balb/MK2 keratinocytes (ELISA). The class given is cell-based, mouse. To be noted: for TSLP-induced periostin release: pre-exposed 4 hrs to 10 μmol/l inhibitor, then TSLP 10 ng/ml for 24 h. On the procedure:
The murine keratinocyte cell line (Balb/MK2) was used in this study to determine the periostin production induced by TSLP. Cells were cultured in EMEM medium according to the previously described method (Fukuyama et al., 2018). Confluent cells were exposed to TSLP at 1 or 10 ng/ml in FBS-free medium for 24 hrs. Inhibitory effect of the JAK2 inhibitor, SD 1008 and the STAT3 inhibitor, niclosamide, on TSLP-induced periostin production was also quantified using the murine Balb/MK2 keratinocyte cell line. Confluent cells were pre-exposed for 4 hrs to SD 1008 (10 μmol/l) or niclosamide (10 μmol/l), before being exposed to the TSLP at 10 ng/ml for a further 24 h. After TSLP exposure, periostin levels in cell supernatant were determined by ELISA according to the manufacturer's instructions.

Data set [4] has as its system NC/Nga mice sensitized with Dermatophagoides farinae HDM. As to the kind of experiment: House dust mite (HDM) allergic itch model in NC/Nga mice. The class given is in vivo, mouse. On the procedure: C57BL6 mice (Jackson Labs, Ellsworth, Maine, United States of America) were applied daily with MC903 (4 nmol) and vehicle (97% ethanol) after brief anesthesia. Skin thickness was measured using cutimeter as described (Fukuyama et al., 2015). Scratching behavior was video-monitored for 30 min on Day 1 and Day 7. On Day 7 skin was collected from vehicle and MC903 treated mice for the Western Blot (WB) as described below. NC/Nga mice (Charles River, Yokohama, Japan) were sensitized and challenged with house dust mite (HDM) allergen (Dermatophagoides farina, Greer, Lenoir, N.C., United States of Amercia) as described previously (Fukuyama et al., 2018). In short, for sensitization, 30 μl of HDM in mineral oil (10 mg/ml) was applied topically to the clipped back twice weekly supported by tape stripping until visible lesions had developed. After development of visible lesions mice were treated daily either with vehicle cream or betamethasone dipropionate (0.1% in lipoderm, n=8). […] Scratching behavior was video monitored for 60 min period immediately after HDM on day 42. For periostin measurement, mice were sacrificed for determination of periostin in skin on day 43. A portion of back skin tissue were snap-frozen in liquid nitrogen. Briefly, samples were homogenized under liquid nitrogen, and the homogenates were taken in 200 μL RPMI 1640 medium containing 1 mmol/L Pefabloc. The amount of periostin was determined using ELISA according to the manufacturer's instruction.

Data set [5] deals with mouse cornea. The data set is described as follows: Eye wipes assay (corneal application). To be noted: wild-type mice, wiping measured for 1 minute. The format is in vivo. On the procedure:
All behavioral experiments were conducted during the light cycle at ambient temperature (23° C.). Behavioral assessment of scratching behavior was conducted as described previously (Mishra et al., 2011). Briefly, mice were injected intradermal into the nape of the neck with periostin (R&D), histamine, and chloroquine (all Millipore-Sigma) as previously described (Shimada and LaMotte, 2008). Compounds were diluted in PBS and the same was used as a vehicle. […] Additionally, cilengitide and periostin were combined together (mix) and injected i.d. into the dorsal neck of mouse. Scratching behavior was recorded for 30 minutes and data was presented in bouts per 30 minutes for mice. […] For eye wipes assay, periostin and capsaicin were dropped on mouse cornea and counted wipes for 1-minute. […] For dog's study, periostin (25 μg/25 μl) was injected in the dorsal neck (s.c.) and behavior was recorded and quantified for 30 minutes as “duration of pruritus manifestation” (DPM), as described earlier (Paps et al., 2016). […] When different raters separately scored a single tape, the ratings indicated high interrater reliability (coefficient of correlation, r>0.95). This method of itch readout in NHP has been used and accepted (Ko and Naughton, 2000). The behavior was recorded for 30 minutes duration and number of scratches quantified. […]

Data set [6] concerns the target integrin αvβ3 on mouse dorsal root ganglia (DRG) sensory neurons (mouse) (UniProt P43406). As to the kind of experiment: cell-based or functional assay.

T1 sequence (Q704Y3 whole entry): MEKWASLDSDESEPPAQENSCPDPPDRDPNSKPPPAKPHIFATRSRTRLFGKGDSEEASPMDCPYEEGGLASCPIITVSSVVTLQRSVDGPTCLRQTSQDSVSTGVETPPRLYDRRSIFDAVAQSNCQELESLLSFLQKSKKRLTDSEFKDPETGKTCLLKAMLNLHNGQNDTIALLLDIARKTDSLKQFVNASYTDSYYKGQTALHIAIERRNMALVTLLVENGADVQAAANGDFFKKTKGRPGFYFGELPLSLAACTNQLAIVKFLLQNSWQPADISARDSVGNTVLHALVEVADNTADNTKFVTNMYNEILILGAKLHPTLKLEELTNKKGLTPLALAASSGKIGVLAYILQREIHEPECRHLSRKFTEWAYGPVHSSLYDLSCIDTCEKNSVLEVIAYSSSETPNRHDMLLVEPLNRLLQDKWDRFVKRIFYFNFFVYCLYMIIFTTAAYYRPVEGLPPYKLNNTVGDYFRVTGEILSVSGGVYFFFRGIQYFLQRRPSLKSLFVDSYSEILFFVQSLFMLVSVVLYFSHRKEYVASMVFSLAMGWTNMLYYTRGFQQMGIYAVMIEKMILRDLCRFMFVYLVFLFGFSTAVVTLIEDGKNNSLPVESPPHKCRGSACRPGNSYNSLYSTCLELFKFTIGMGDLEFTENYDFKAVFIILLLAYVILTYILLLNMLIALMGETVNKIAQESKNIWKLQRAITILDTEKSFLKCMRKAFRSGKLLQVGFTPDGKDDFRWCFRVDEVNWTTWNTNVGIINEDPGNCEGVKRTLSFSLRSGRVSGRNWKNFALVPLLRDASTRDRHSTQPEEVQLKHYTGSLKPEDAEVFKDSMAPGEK
Chain of integrin αvβ3 on mouse dorsal root ganglia (DRG) sensory neurons (mouse) (P43406 31-1044, chain 1 of 2): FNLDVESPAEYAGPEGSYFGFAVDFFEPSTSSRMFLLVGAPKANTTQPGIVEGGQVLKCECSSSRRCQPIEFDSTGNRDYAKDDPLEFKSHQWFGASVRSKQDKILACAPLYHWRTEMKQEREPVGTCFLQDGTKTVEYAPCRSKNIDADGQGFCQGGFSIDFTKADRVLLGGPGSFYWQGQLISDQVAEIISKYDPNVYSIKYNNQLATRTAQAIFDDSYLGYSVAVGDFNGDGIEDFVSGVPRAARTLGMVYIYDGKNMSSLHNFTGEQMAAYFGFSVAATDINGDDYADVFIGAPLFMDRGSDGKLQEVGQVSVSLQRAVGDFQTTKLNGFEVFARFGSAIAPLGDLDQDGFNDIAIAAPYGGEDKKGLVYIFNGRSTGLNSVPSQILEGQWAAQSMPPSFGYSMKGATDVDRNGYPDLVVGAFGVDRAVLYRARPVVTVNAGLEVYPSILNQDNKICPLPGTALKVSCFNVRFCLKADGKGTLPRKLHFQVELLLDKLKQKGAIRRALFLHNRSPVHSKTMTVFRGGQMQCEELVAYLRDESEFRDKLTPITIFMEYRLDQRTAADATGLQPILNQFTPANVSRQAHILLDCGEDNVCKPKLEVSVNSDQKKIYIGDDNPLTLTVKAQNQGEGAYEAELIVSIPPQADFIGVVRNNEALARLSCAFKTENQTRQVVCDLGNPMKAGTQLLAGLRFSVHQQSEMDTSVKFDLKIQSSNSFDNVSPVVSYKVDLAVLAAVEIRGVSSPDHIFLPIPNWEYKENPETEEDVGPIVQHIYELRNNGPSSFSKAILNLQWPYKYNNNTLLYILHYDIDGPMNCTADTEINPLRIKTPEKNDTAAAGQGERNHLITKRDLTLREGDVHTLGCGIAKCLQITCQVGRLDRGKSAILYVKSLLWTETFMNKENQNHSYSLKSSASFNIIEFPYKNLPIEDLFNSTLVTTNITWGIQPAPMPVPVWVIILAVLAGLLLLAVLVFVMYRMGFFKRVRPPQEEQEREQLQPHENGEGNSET
Chain of integrin αvβ3 on mouse dorsal root ganglia (DRG) sensory neurons (mouse) (O54890 26-787, chain 2 of 2, further chain): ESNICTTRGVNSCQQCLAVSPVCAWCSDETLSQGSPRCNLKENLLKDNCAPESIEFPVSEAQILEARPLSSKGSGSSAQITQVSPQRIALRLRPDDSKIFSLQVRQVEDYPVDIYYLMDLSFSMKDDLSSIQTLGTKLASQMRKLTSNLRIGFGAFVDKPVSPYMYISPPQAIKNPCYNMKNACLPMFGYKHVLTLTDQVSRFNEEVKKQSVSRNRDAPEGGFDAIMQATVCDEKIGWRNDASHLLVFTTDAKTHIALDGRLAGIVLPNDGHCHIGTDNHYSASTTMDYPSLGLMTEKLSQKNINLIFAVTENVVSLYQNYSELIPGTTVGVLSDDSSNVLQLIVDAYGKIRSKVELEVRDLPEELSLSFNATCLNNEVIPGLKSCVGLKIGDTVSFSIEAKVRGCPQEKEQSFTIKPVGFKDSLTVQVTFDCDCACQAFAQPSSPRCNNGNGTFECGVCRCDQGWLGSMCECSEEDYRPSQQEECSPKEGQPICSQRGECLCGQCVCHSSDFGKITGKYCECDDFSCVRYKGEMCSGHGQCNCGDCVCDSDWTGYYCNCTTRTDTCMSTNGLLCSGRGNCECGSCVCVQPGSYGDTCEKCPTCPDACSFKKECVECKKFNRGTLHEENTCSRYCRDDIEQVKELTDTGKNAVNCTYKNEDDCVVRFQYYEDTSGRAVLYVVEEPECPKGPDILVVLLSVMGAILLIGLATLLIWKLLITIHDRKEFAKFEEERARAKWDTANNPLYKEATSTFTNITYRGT

Consider `COc1ccc([C@H](CC(=O)O)N2CCN(CCCc3ccc4c(n3)NCCC4)C2=O)cn1` [MK-0429, (S)-3-(6-methoxypyridin-3-yl)-3-(2-oxo-3-(3-(5,6,7,8-tetrahydro-1,8-naphthyridin-2-yl)propyl)-imidazol-idin-1-yl)propanoic acid], for which the “periostin response (calcium influx)” value in data set [1] (higher concentration of MK-0429 (160 nM)) is recorded as “significant reduction”. In addition, the capsaicin response entry in data set [2] (MK-0429 80 nM or 160 nM) was “no changes”.

`CNc1cccc(CCOc2ccc3c(c2)CN(CC(F)(F)F)C(=O)[C@H](CC(=O)O)C3)n1` [SB273005, (S)-2-(8-(2-(6-(methylamino)pyridin-2-yl)ethoxy)-3-oxo-2-(2,2,2-trifluoroethyl)-2,3,4,5-tetrahydro-1H-benzo-[c]azepin-4-yl)acetic acid]: the “reduction of periostin-induced calcium response” value in data set [1] (SB273005 11 nM, trend, not statistically significant) is listed as “about 40%”. Further, the periostin-induced calcium response result in data set [1] (SB273005 higher concentration (20 nM)) is reported as “significant reduction”. The capsaicin response entry in data set [2] (SB273005 11 nM or 20 nM) is reported as “No changes”.

For the molecule `COC(=O)[C@@H]1[C@H](C(=O)OC)[C@H]2C=CC(=O)[C@@H]1N2Cc1ccccc1` [SD 1008], the TSLP-induced periostin release result in data set [3] is listed as “blocked”.

Take `COc1ccc2c(c1)CC[C@@H]1[C@@H]2CC[C@]2(C)[C@@H](NCCCCCCN3C(=O)C=CC3=O)CC[C@@H]12` [U73122]: the periostin-induced calcium response entry in data set [1] (phospholipase C inhibitor U73122 1 μM) is “not affected”.

Take `CCC(=O)OCC(=O)[C@@]1(OC(=O)CC)[C@@H](C)C[C@H]2[C@@H]3CCC4=CC(=O)C=C[C@]4(C)[C@@]3(F)[C@@H](O)C[C@@]21C` [betamethasone dipropionate]: the HDM-induced scratching result in data set [4] (betamethasone dipropionate 0.1% in lipoderm topically, day 42) is reported as “reduced”. Further, the periostin skin levels entry in data set [4] (betamethasone dipropionate 0.1% in lipoderm topically, skin ELISA day 43) is “reduced significantly”. Also, in data set [4] (daily betamethasone dipropionate 0.1%, application reduced to every other day on day 26), the body weight result is “significant weight loss”.

On to `COc1cc(CNC(=O)CCCC/C=C/C(C)C)ccc1O` [capsaicin], for which the “eye-wiping response to ocular application” value in data set [5] is “robust eye-wipe behavior”.

For `O=C1OC2(c3ccccc31)c1ccc(O)c(O)c1Oc1c2ccc(O)c1O` [gallein], the periostin-induced calcium response result in data set [1] (Gβγ blocker gallein 100 μM) is reported as “not affected”.

Consider `O=C(Nc1ccc([N+](=O)[O-])cc1Cl)c1cc(Cl)ccc1O` [niclosamide], for which, in data set [3], the TSLP-induced periostin release entry was “blocked”.

Regarding Echistatin, in data set [1] (Echistatin 4 nM), the “reduction in periostin-induced calcium influx” value is “around 80%”. The capsaicin response entry in data set [2] (in presence of Echistatin) is recorded as “remains unaffected”.

Regarding “His-Ser-Asp-Val-His-Lys-NH2 (HSDVHK-NH2) [P11]”, the “reduction in periostin-induced calcium influx” value in data set [1] (P11 50 μg/ml, 10 minutes pre-incubation) is “about 78%”. For the same molecule, the capsaicin response result in data set [2] (P11 pre-treatment) was “no change”.

Consider “Recombinant Mouse Periostin (from UniProt Q62009 24-811) (ligand)”, for which, in data set [6], the inward current in SST-positive DRG neurons in response to periostin (10 µg/ml), whole-cell patch clamp was 58.4 pA.

B1: TSLP: Th2 cytokine thymic stromal lymphopoietin, recombinant mouse (protein, UniProt Q9JIE6 20-140, looked up)
Thymic stromal lymphopoietin: YNFSNCNFTSITKIYCNIIFHDLTGDLKGAKFEQIEDCESKPACLLKIEYYTLNPIPGCPSLPDKTFARRTREALNDHCPGYPETERNDGTQEMAQEVQNICLNQTSQILRLWYSFMQSPE
As for B1, the “release of periostin from keratinocytes” value in data set [3] (TSLP 1 and 10 ng/ml, 24 hrs) is recorded as “induced the release of periostin”.
